Assays:
db/db mice = test: pancreas histology (H&E, IHC) of treated db/db mice; assay type: in vivo
Experimental: Analysis of islet cell mass was performed using conventional methods. In brief, mice were sacrificed by cervical dislocation. The body part of the pancreas was rapidly excised, fixed in 10% neutral buffered formalin solution for 24 h and embedded in paraffin, then sectioned at 5 μm ready for hematoxylin and eosin (H&E) staining and immunohistochemistry staining (IHC). The latter was carried out using rabbit anti-insulin polyclonal antibody (Cat. no. 4590, 1:600) and rabbit anti-glucagon monoclonal antibody (Cat. no. 8233s, 1:200) from Cell Signaling Technology.
Fig 5 WB403 preserved the mass of pancreatic β-cells and normal distribution of α and β-cells. (A) H&E staining of pancreas from db/db mice, and statistical result. Islets were sized by the Image J analysis software on alternated pancreatic sections spaced each by 100 μm. (B) Immunohistochemical analysis of pancreatic sections by anti-insulin antibody or anti-glucagon antibody. (C) H&E staining of pancreas from HFD/STZ mice, and statistical result. Results are representative islets from each group. 1–5 in the column graph on the right represents normal mice, diabetic mice treated with vehicle, WB403 50 mg/kg, WB403 100 mg/kg, sitagliptin 100 mg/kg respectively (n = 5). *p<0.05, **p<0.01, ***p<0.001 vs. diabetes-vehicle group.

hTGR5 = target: T1, hTGR5 (Homo sapiens, UniProt Q8TDU6); test: human TGR5 CRE-luciferase assay in co-transfected 293T cells; assay type: cell-based
T1 construct: expressed in transfected cells; host or cells: 293T cells, transient transfection with pTGR5 (gift from Prof. Johan Auwerx)
T1 sequence (Q8TDU6 1-330): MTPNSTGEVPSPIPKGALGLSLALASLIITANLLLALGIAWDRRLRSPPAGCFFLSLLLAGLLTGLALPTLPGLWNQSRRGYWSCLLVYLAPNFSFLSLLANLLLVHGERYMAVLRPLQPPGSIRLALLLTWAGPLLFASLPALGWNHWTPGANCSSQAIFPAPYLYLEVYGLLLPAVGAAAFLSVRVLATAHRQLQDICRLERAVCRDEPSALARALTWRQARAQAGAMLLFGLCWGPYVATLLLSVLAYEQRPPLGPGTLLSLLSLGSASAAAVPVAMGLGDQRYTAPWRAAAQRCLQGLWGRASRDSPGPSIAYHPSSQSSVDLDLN
Experimental: For human TGR5 luciferase (luc) assay, 293T cells were co-transfected with pCRE-luc, pTGR5 (kind gift from Prof. Johan Auwerx, Ecole Polytechnique Fédérale de Lausanne, Lausanne, Switzerland) and pRenilla (Promega, USA). WB403 was added 5 h later. Cells were harvested after 16 h and subjected to luciferase analysis on Lumistar Optima chemiluminescent detector (BMG labtech, Germany). For cAMP testing, 293T cells transiently transfected with pTGR5 or pGPR119 (GeneCopoeia, USA) were washed by FBS-free DMEM, and stimulated with WB403 in FBS-free DMEM containing 3-isobutyl-1-methyl-xanthine (IBMX, Sigma). Cell lysates were collected 30 min later and used for cAMP ELISA assay. FLIPR Calcium 5 assay kit (Molecular Devices, USA) was used for calcium mobilization assay. 293-GPR40 stable cells (kindly provided by Prof. Naiming Zhou of Zhejiang University, Hanzhou, China) or 293 cells transient transfected with GPR120 were seeded at 50,000 cells per well in black-walled clear-bottomed 96-well plates (Costar). An equal volume of loading buffer containing Fluo 4-AM was added the following day and cells were incubated for 1 h before stimulated with compounds. Increase of the intracellular Ca^2+ concentration was monitored by Flexstation 3 system (Molecular Devices, USA).
(§1) Fig 1 WB403 activated TGR5 and promoted active GLP-1 secretion. (A) WB403 stimulated hTGR5 in CRE-luciferase report system at the concentration range of 1–20 μmol/l. (B) WB403 stimulated hTGR5 specific cAMP accumulation at the concentration range of 1–50 μmol/l. n = 3. **p<0.01, ***p<0.001 vs. DMSO (+TGR5) group. (C) The hTGR5 targeted CRE-luciferase activity of WB403 and ZY403. […] (D) Effect of WB403 and ZY403 on gallbladders of mice. Normal mice were fasted overnight and treated with compounds (200 mg/kg) or vehicle (DMSO) by ip injection. Gallbladders (GB) were removed 30 min later and volumes measured then normalized to body weight (B.W.). n = 10. **p<0.01 vs. vehicle group. (E) Structure of WB403 and ZY403. WB403 promoted GLP-1 secretion in NCI-H716 cells (F), primary enterocytes (G), and MIN6 cells (H). n = 3. *p<0.05, **p<0.01, ***p<0.001 vs. vehicle group. (I) WB403 promoted GLP-1 in ICR mice. n = 5. **p<0.01 vs. vehicle group. Values represent mean ± SEM.

gallbladders of mice = test: gallbladder filling in normal mice; assay type: in vivo; settings: 200 mg/kg ip, normal mice fasted overnight, gallbladders removed 30 min later, n = 10
Source text: as §1

NCI-H716 cells = test: active GLP-1 secretion in NCI-H716 cells; assay type: cell-based, human; settings: 10 μmol/l, 30 min
Experimental: Endocrine differentiation was induced by seeding NCI-H716 cells in plates coated with Matrigel (Becton Dickinson). Cells were washed with RPMI-1640 medium without FBS and incubated in the same medium containing indicated compounds at 10 μmol/l. The condition medium was collected after 30 min. GLP-1 secretion in MIN6 or primary enterocytes was conducted similarly. To isolate primary enterocytes, ileum or colon was cut into 2 cm length, rinsed by PBS (pH7.2∼7.4) before dispersed in 10 mmol/l EDTA/PBS (pH7.4) for 15 min at room temperature, followed by pipetting up and down. Enterocytes were collected by filtration through a 70 μm cell strainer. To study the effect of WB403 on GLP-1 secretion in vivo, mice in group of three were fasted overnight and orally received 0, 50, 100 mg/kg of WB403 dispersed in 0.5% CMC with a DPP-4 inhibitor (5 mg/kg). There were 5 animals in each group. 2 g/kg glucose was administrated 30 min later and blood was collected 10 min after glucose challenge.
The GLP-1 (active) ELISA kit was purchased from Millipore, and insulin ELISA kit was from Mercodia. For quantitative determination of cAMP, a competitive enzyme immunoassay kit from R&D system was used. All immunoassays were performed according to manufacturers’ instructions.

TGR5 = settings: moderate bile acids; ref [22], [34]; cited from earlier work

Q: With `N[C@@H](CC(=O)N1CCn2c(nnc2C(F)(F)F)C1)Cc1cc(F)c(F)cc1F` [sitagliptin, sitagliptin phosphate, reference compound] as the compound, how does the “islet area vs vehicle” value (db/db mice; H&E, after 4-week treatment) read?
A: The value was “bigger islet area as compared to the vehicle mice, though no significant difference was found”.

Q: And the “α-cell and β-cell distribution in islets” value (db/db mice; IHC anti-insulin / anti-glucagon)?
A: The value was “significantly reduced α-cell in the islet core area and restored the normal cell distribution pattern”.

Q: Which EC50 (hTGR5; CRE-luciferase, 293T cells, Fig 1C, read-out: EC50, hTGR5 targeted CRE-luciferase activity) does the source give for `CCc1cc(-c2nc(CCOCc3ccc(Br)cc3)cs2)ccn1` [ZY403] here?
A: Its EC50 is 1.3 µM.

Q: What about the “TGR5 luciferase activity in primary screen (fold increase compared to DMSO control)” value (hTGR5; screen of 100 compounds, S1 Fig) of the same compound?
A: Its value is “highest luciferase activity”.

Q: What about the gallbladder filling (gallbladders of mice) of the same compound?
A: Its gallbladder filling is “caused gallbladder filling”.

Q: What about the “GLP-1 stimulation in NCI-H716 cells” value (NCI-H716 cells) of the same compound?
A: Its value is “did not show a strong stimulation for GLP-1 activity”.

Q: Which EC50 (TGR5) does the source give for `C[C@H](CCC(=O)O)[C@H]1CC[C@H]2[C@@H]3[C@H](O)C[C@@H]4C[C@H](O)CC[C@]4(C)[C@H]3C[C@H](O)[C@]12C` [CA, cholicacid] here?
A: Its EC50 is 7.72 µM.
